Literature values, collected in US20210069174A1, “COMPOSITIONS AND METHODS FOR TREATMENT OF CYSTIC FIBROSIS” (Vertex Pharmaceuticals Incorporated, priority 2017, published 2021).

Test system: CFTR
Conditions: CFTR modulator; disclosed in PCT Publication No. WO 2016/057572

CC(C)COc1cc(F)cc(-c2ccc(C(=O)NS(=O)(=O)c3ccccc3)c(N3C[C@@H](C)CC3(C)C)n2)c1 [Compound I, N-(benzenesulfonyl)-6-(3-fluoro-5-isobutoxy-phenyl)-2-[(4S)-2,2,4-trimethylpyrrolidin-1-yl]pyridine-3-carboxamide]
EC30: < 3000 nM
